Measured values: patent US20150342961A1, “USE OF PROSTAGLANDIN E1 (PGE1) AND MISOPROSTOL FOR TREATING CHRONIC MYELOGENOUS/MYELOID LEUKEMIA (CML)” (priority 2014, published 2015)
Entries after “also recorded” stand apart in the source; their conditions may differ. Counter-ions that a name gives are not always drawn.

Tests used:
[1] = tested on: CML; assay: Screen of drugs simulating Tcf1 and Lef1 elimination, effect on CML
From the text: (§1) In view of the Inventor's discovery, the Inventor set out to screen for drugs that would simulate the effect of eliminating Tcf1 and Lef1 for use in treatment of CML. Inventor experimented with the following drugs which are known to at least partly simulate the effect of eliminating Tcf1 and Lef1: Carbimazole, Cinchonine, Gibberellic acid, Hippeastrine hydrobromide, Dimaprit dihydrochloride, Spaglumic acid, and Vigabatrin. […] Inventor further experimented with Trichostatin A and Vorinostat. […] Inventor thereafter turned to prostaglandins for treating CML.

[2] = tested on: LSCs; assay: Screen of drugs simulating Tcf1 and Lef1 elimination, effect on LSCs
From the text: as §1

[3] = tested on: CML mouse model; assay: CML mouse model, survival of primary recipients after BMT; type: in vivo; conditions: for survival rate at about day 35 / time mice survived after bone marrow transplantation (BMT) before survival declined: 2.5 mg/kg daily, days 8-36 post-BMT
Protocol: Bone marrow cells (BM) were isolated from donor mice, and HSCs were enriched and delivered the BCR-ABL gene using retroviral transduction. The BM cells were then transplanted into another group of recipient mice (called primary recipients here). The recipients will develop CML because the donor HSCs are transformed by BCR-ABL. On day 8 after BM transplantation (BMT), the primary recipients were treated with DMSO (the solvent to dissolve PGE1 or PGE2), PGE1, PGE2, Imatinib or both PGE1 and Imatinib. The survival of the recipients was monitored.
CML was established as in FIG. 5. During days 8-36 post-bone marrow transplantation (BMT), the recipients were treated daily with 2.5 mg/kg body weight PGE1 or PGE2, or the vehicle DMSO. Statistical significance was determined by log-rank test. Data are pooled results from 2 independent experiments with a total of 10 CML recipients tested under each condition.
CML was established as in FIG. 5. During days 8-80 post-BMT, the recipients were treated daily with Imatinib alone (100 mg/kg body weight, b.i.d.) or in combination with PGE1 (2.5 mg/kg body weight). Statistical significance was determined by log-rank test. Data are pooled results from 2 independent experiments with a total of 9-10 CML recipients tested under each condition.
(§2) CML animals were treated with the solvent dimethyl sulfoxide (DMSO) as a negative control (See FIG. 6).

[4] = tested on: LSCs; assay: LSCs from treated primary recipients transplanted into secondary recipients, propagation of CML; type: in vivo, mouse; conditions: secondary recipients untreated
Protocol: The CML model was established in the primary recipients as in FIG. 5. The recipients were then treated with Imatinib, PGE1 or Misoprostol alone, or in combination during days 8-21 post-BMT. The LSCs were isolated from the BM of the primary recipients and transplanted into another set of secondary recipients. The ability of LSCs to propagate CML in the secondary recipients were tracked.
Note that the LSCs were only treated with PGE1 or Misoprostol in the primary recipients for 2 weeks, and none of the secondary recipients were treated.
as §2

[5] = tested on: HSCs
From the text: as §1

C=C[C@H]1C[N@@]2CC[C@H]1C[C@@H]2[C@@H](O)c1ccnc2ccccc12 [Cinchonine]
effect on CML [1]: no effect on CML

CN1CCC2=C[C@H](O)[C@H]3OC(=O)c4cc5c(cc4[C@H]3[C@@H]21)OCO5 [Hippeastrine hydrobromide]
effect on CML [1]: no effect on CML

C=C1C[C@]23C[C@@]1(O)CC[C@H]2[C@@]12C=C[C@H](O)[C@@](C)(C(=O)O1)[C@H]2[C@@H]3C(=O)O [Gibberellic acid]
effect on CML [1]: no effect on CML

CC(/C=C/C(=O)NO)=C\[C@@H](C)C(=O)c1ccc(N(C)C)cc1 [Trichostatin A]
effect on LSCs [2]: strong effect on LSCs

CCCCC[C@H](O)/C=C/[C@H]1[C@H](O)CC(=O)[C@@H]1C/C=C\CCCC(=O)O [PGE2, Prostaglandin E2]
survival rate at about day 35 ([3]; CML mice): about 10%
time mice survived after bone marrow transplantation (BMT) before survival declined ([3]; CML mice): approximately 17 days

CN(C)CCCSC(=N)N [Dimaprit dihydrochloride]
effect on CML [1]: no effect on CML

Cc1ccc(NC(=O)c2ccc(CN3CCN(C)CC3)cc2)cc1Nc1nccc(-c2cccnc2)n1 [Imatinib]
effect of Imatinib or co-therapy on survival of CML recipients ([3]; Imatinib 100 mg/kg b.i.d. alone or with PGE1 2.5 mg/kg, days 8-80 post-BMT): substantially extend the survival; also recorded: extended the survival of CML mice
day after BMT at which all CML mice had died ([3]; Imatinib 100 mg/kg b.i.d., days 8-80 post-BMT): ~62 days
day after secondary BMT at which secondary recipients died ([4]; LSCs treated in primary recipients days 8-21 post-BMT): ~40 days

C=CC(N)CCC(=O)O (stereo not drawn) [Vigabatrin]
effect on CML [1]: no effect on CML

O=C(CCCCCCC(=O)Nc1ccccc1)NO [Vorinostat]
effect on LSCs [2]: strong effect on LSCs
toxicity to HSCs [5]: toxic to HSCs

CCOC(=O)n1ccn(C)c1=S [Carbimazole]
effect on CML [1]: no effect on CML

CCCCC[C@H](O)/C=C/[C@H]1[C@H](O)CC(=O)[C@@H]1CCCCCCC(=O)O [PGE1, Prostaglandin E1]
survival rate at about day 35 ([3]; CML mice): ~50%
time mice survived after bone marrow transplantation (BMT) before survival declined ([3]; CML mice): approximately 17 days
greater survival rate compared to the PGE2 mice ([3]; CML mice, about day 35): ~400%
ability of treated LSCs to propagate CML in secondary recipients ([4]; two-week treatment in primary recipients): superior to Imatinib treatment; also recorded: much less efficient in propagating CML
